The target of data set [1] is T1, purified bovine lung membrane-bound aminopeptidase P (Bos taurus, UniProt E1B735).
T1 construct: from tissue; host or cells: bovine lung
T1 sequence (E1B735 22-673): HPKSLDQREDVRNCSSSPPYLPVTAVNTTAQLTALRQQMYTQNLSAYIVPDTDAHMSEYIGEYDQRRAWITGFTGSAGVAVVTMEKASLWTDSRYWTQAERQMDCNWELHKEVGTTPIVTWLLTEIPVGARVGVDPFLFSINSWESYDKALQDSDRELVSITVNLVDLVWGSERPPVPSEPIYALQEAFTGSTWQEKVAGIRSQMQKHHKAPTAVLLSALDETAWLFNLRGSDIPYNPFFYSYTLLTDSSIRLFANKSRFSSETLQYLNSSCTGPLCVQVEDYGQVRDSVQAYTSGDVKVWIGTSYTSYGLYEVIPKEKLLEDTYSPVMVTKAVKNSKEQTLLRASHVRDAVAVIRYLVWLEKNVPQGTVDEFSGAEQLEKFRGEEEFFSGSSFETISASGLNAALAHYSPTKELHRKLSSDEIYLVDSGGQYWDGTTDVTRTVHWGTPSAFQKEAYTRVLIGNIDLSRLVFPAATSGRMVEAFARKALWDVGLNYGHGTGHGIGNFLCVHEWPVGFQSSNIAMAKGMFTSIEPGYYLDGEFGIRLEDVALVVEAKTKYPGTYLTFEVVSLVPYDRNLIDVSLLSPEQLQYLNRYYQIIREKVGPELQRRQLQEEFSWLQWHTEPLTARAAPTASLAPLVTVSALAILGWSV
Nature of the data set: Aminopeptidase P inhibition, release of arginine from Arg-Pro-Pro (fluorescent assay). It counts as biochemical. The following applies: bovine lung aminopeptidase P; cleavage of 0.5 μM Arg-Pro-Pro in 0.1M Hepes, pH 8.0 at 37° C. On the procedure:
The IC50 of the compound of the present invention in relation to aminopeptidase P was also determined. […] The specificity of the compound of the present invention for other aminopeptidases was similarly determined as described in the Experimental Procedures herein. […] The following enzymes had IC50 values>800 μM: aminopeptidase A, angiotensin converting enzyme, dipeptidyl-peptidase I-like activity, bestatin-sensitive/amastatin-insensitive membrane dipeptidase (29), microsomal dipeptidase, endopeptidase 24.11, endopeptidase 24.15, and prolyl oligopeptidase.
(§1) Enzymes--Membrane-bound aminopeptidase P was purified to homogeneity from bovine lung (14) and from rat lung. Partially purified membrane-bound aminopeptidase P from human lung was obtained by treatment of lung microsomes with phosphatidylinositol-specific phospholipase C (B. thuringiensis) (ICN, Costa Mesa, Calif.) followed by centrifugation as described previously (14). Membrane dipeptidase was purified from rat lung microsomes (manuscript in preparation). Recombinant E. coli aminopeptidase P (22) and purified lamb kidney prolyl oligopeptidase (23) were generally supplied by Dr. Tadashi Yoshimoto (Nagasaki University). Purified porcine kidney prolidase and purified porcine kidney aminopeptidase M was obtained from Sigma (St. Louis, Mo.).
(§2) Enzyme Kinetics--Aminopeptidase P activity was determined by measuring the release of arginine from Arg-Pro-Pro by a fluorescent assay described previously (14). […] Each mixture was run in duplicate. Aliquots were removed from each incubation mixture at various times and assayed for the amount of arginine present to determine the reaction velocity. In general, reaction velocities were calculated from data representing less than 20% cleavage of substrate. Ki and Ki ' (=αKi) were determined from plots of 1/v versus concentration of inhibitor "i" (26) and S/v versus concentration of inhibitor "i" (27), respectively. These parameters were also determined from the slope replot and 1/v-intercept replot, respectively, of the 1/v versus 1/S plot (28). See e.g., FIG. 1B. The values from the two treatments of the data were averaged for each experiment. Experiments for each enzyme preparation were performed twice and the results averaged.

Data set [2] deals with T2, partially purified human lung membrane-bound aminopeptidase P (Homo sapiens, UniProt O43895).
T2 construct: from tissue; host or cells: human lung microsomes
Described as above. Format: biochemical. To be noted: human lung aminopeptidase P; for IC50: cleavage of 0.5 μM Arg-Pro-Pro in 0.1M Hepes, pH 8.0 at 37° C. On the procedure:
The IC50 of the compound of the present invention in relation to aminopeptidase P was also determined. […] The specificity of the compound of the present invention for other aminopeptidases was similarly determined as described in the Experimental Procedures herein.
as §1
as §2, with “See e.g., FIG. 1B.” left out

The subject of data set [3] is [3H]-bradykinin degradation in the isolated perfused rat lung. Nature of the data set: [3H]-bradykinin degradation in the isolated perfused rat lung (HPLC of perfusate). On the procedure:
Using the procedure described herein, under Experimental Procedures it was determined that aminopeptidase P contributed to Bk degradation in the mammalian lung. In that procedure, [^3 H]-Bk (labelled in Pro^2 and Pro^3) was perfused through the isolated lung in the presence or absence of various peptidase inhibitors. The perfusate was then analyzed for radiolabelled products by HPLC. […] Most of the radioactivity (an average of 79%) was in the form of [^3 H]-Pro-Pro [Bk(2-3)] with the remainder being [^3 H]-Bk(1-5). It was hypothesized that pulmonary vascular aminopeptidase P was cleaving the Arg'-Pro^2 bond followed by rapid removal of Pro-Pro by dipeptidylpeptidase IV (DPP IV) (12). Simultaneously, angiotensin converting enzyme (ACE) was sequentially removing Phe-Arg and Ser-Pro from the C-terminus (13). […] However, most of the radioactivity remained in the Pro-Pro peak indicating substantial cleavage of Bk at the N-terminal end.
Perfusion of the Isolated Rat Lung--Male Sprague Dawley rats, weighing 300-500 grams, were anesthetized with sodium pentobarbital (50-75 mg/kg) given by intraperitoneal injection. The trachea was cannulated and the lungs ventilated with air at 70 cycles per minute (Harvard Small Animal Ventilator) at a pressure of 70 mm H2 O. The heart and lungs were exposed via midsternal incision and 1000 units of heparin were administered intracardially. Polyethylene cannulae were secured into the pulmonary artery and the left ventricle. A modified Krebs buffer (118.5 mM NaCl, 4.7 mM KCl, 1.1 mM KH2 PO4, 1.1 mM MgSO4, 2.5 mM CaCl2, 19.6 mM NaHCO3, 5.6 mM dextrose), which was kept in a 50° C. water bath and aerated with 95% O2 -5% CO2 to pH 7.35, was perfused into the pulmonary artery at 35° C. and 2.6 ml/min (LKB Microperplex peristaltic pump). The buffer was circulated through the isolated lung in situ until the effluent was free of blood. The surgical field was maintained at 37° .C with a heat lamp throughout the procedure. Experiments were conducted by introducing [^3 H]-Bk in the presence or absence of test peptidase inhibitors into the pulmonary circulation via the pulmonary artery and then collecting perfusion effluent from the left ventricular cannula. […] The lung was then perfused with 1 μCi [^3 H]-Bk in 1 ml of the inhibitor solution (giving 16 nM Bk) followed by inhibitor solution alone. Effluent was collected in tubes (0.5 min/fraction) containing 150 μl of 2% TFA. For each lung preparation, 5-6 samples were perfused over a period of about one hour. Control perfusions of [^3 H]-Bk alone were always carried out before perfusions of samples containing ramiprilat because of the slow reversibility of inhibition of ACE by this compound. […] The effects of the latter two inhibitors were reversible.
Separation and Identification of Bradykinin Metabolites--The fractions which were collected from each perfusion sample run were counted for radioactivity, and the fraction having the highest radioactive counts was prepared for HPLC by filtration through a Centricon-10 microconcentrator (Amicon). An aliquot of the filtrate containing 25000 dpm (approx. 25 μl) was spiked with a cocktail of unlabelled Bk fragments (3 μl) and then subjected to HPLC using a Waters Radial Compression Separation System with a 5μ NOVA PAK C18 Radial Pak Cartridge. The column was developed at a flow rate of 1 ml/min with a 60 min linear gradient from 100% Solvent A (0.1% TFA in water) to 75% Solvent A: 25% Solvent B (0.08% TFA in acetonitrile) using a Spectra Physics 8700XR Solvent Delivery System. The column effluent was simultaneously monitored for absorbance at 206 nm (LKB Uvicord S) and for radioactivity (Radiomatic Flo-One HS Radioactive Flow Detector using Ultima-Flo M scintillation fluid from Packard, Meriden, Conn.). […] Radioactive peaks were identified by comparison of the retention times to those of the unlabelled standards. […]

The test system of data set [4] is membrane-bound aminopeptidase P. Nature of the data set: partially purified human lung membrane-bound aminopeptidase P in 0.1 M Hepes, pH 8.0. To be noted: 39° C.
Data set [5] in a line: isolated perfused rat lung, modified Krebs buffer. To be noted: Male Sprague Dawley rats, 35° C.

Values joined by “and” are separate entries in the source; they are usually repeats but may differ in a detail not shown here. Identical values can stand only once. “Also recorded” adds a separate entry of the source. A value given as a limit tells only on which side of the number the result lay.

T2 sequence (O43895 22-674): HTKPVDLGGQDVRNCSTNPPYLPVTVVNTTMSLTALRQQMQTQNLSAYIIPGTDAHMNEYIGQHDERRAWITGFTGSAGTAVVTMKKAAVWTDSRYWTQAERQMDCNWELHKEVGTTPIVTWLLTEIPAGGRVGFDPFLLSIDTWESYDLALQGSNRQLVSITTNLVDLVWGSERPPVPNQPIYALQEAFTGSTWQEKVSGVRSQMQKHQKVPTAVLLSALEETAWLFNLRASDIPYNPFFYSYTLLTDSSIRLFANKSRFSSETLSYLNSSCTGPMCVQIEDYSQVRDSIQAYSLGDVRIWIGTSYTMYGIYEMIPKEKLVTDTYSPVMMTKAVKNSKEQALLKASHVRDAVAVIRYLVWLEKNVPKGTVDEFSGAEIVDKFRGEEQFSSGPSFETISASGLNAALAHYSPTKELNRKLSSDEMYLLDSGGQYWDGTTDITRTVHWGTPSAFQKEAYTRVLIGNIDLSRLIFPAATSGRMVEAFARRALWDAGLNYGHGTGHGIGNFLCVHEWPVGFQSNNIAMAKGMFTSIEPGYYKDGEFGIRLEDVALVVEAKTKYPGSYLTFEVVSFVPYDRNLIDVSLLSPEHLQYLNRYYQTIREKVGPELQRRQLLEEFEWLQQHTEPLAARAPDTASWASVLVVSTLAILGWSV

A word on the IC50: it is the concentration needed to halve the response being measured. High values mean weaker potency, low ones greater potency. Regarding `CC(C)C[C@H](N)[C@@H](O)C(=O)N1CCC[C@H]1C(=O)N1CCC[C@H]1C(=O)N[C@@H](C)C(N)=O` [(2R,3S), N-[(2R,3S)-3-amino-2-hydroxy-5-methylhexanoyl]-L-prolyl-L-prolyl-L-alaninamide], the IC50 is 2100 nM in data set [1] and 430 nM in data set [2].
Turning to `CC(C)C[C@@H](N)[C@H](O)C(=O)N1CCC[C@H]1C(=O)N1CCC[C@H]1C(=O)N[C@@H](C)C(N)=O` [(2S,3R), N-[(2S,3R)-3-amino-2-hydroxy-5-methylhexanoyl]-L-prolyl-L-prolyl-L-alaninamide], the IC50 in data set [1] is 4500 nM; in data set [2], 230 nM. Also, the “IC50 relative to the IC50 of apstatin” value in data set [2] (versus apstatin […]) is “approximately ten-fold”.
In the case of `CC(C)C[C@@H](N)[C@H](O)C(=O)N[C@H](C(=O)N[C@H](C(=O)N[C@@H](CC(=O)O)C(=O)O)C(C)C)C(C)C` [amastatin, [(2S, 3R)-3-amino-2-hydroxy-5-methylhexanoyl]-Val-Val-Asp], in data set [3] (100 μM along with ramiprilat in the perfusion medium (data not shown)), the “effect on the pattern of metabolites” value is reported as “no significant effect”.
Take `CC[C@H](C)[C@H](N)C(=O)N1CCC[C@H]1C(=O)N[C@H](C(=O)O)[C@@H](C)CC` [diprotin A, Ile-Pro-Ile]: in data set [3] (diprotin A present along with ramiprilat (data not shown)), the “form of radioactivity eluted from the lung” value is “most of the radioactivity eluted from the lung in the form of [^3 H]-Bk(2-9)”.
In the case of `C[C@H](N[C@@H](CCc1ccccc1)C(=O)O)C(=O)N1[C@H](C(=O)O)C[C@@H]2CCC[C@@H]21` [ramiprilat], in data set [3] (ramiprilat (0.5 μM) alone in the perfusion medium, mean ± SEM, three rats), the “percentage of radioactivity eluting from the lung as intact [3H]-Bk” value was 22±6% and 22%. The “fold increase of intact [3H]-Bk eluting from the lung” value in data set [3] (ramiprilat alone versus no inhibitor (unmeasurable levels)) is at least 22 fold.
Regarding Arg-Pro-Pro, the cleaved bond entry in data set [4] is “Arg-Pro”.
On to [2,3-Prolyl-3,4-^3 H(N)]-bradykinin, for which, in data set [5], the cleaved bond result was “rapid removal of Pro-Pro by dipeptidylpeptidase IV (DPP IV); also recorded: Pro7-Phe8; also recorded: removing Ser-Pro from the C-terminus (after Phe-Arg); also recorded: Arg1-Pro2, major; also recorded: [^3 H]-Pro-Pro arose by DPP IV cleavage of [^3 H]-Bk(2-9)”; the fragment found entry was “[^3 H]-Bk(1-5), major; also recorded: [^3 H]-Pro-Pro, minor”; the not cleaved entry is “no [^3 H]-Bk(1-7) was observed in the perfusate”.

The values above are taken from patent US5656603A (Loyola University of Chicago, priority 1995, dated 1997).
